For 20 compounds, IC50 results are on record in US20240109917A1 (ACTELION PHARMACEUTICALS LTD, priority 2020, published 2024).

The structures appear in SMILES notation. pIC50: −log10 of the molar value.

The test concerns the target VEGFR2, unphosphorylated (Homo sapiens (Human), UniProt P35968). As to the kind of experiment: VEGFR ADP GLO Assay. It counts as biochemical. (ADP-Glo turns the ADP formed in a reaction into a luminescent signal.)

VEGFR2, unphosphorylated, sequence (P35968 20-1356): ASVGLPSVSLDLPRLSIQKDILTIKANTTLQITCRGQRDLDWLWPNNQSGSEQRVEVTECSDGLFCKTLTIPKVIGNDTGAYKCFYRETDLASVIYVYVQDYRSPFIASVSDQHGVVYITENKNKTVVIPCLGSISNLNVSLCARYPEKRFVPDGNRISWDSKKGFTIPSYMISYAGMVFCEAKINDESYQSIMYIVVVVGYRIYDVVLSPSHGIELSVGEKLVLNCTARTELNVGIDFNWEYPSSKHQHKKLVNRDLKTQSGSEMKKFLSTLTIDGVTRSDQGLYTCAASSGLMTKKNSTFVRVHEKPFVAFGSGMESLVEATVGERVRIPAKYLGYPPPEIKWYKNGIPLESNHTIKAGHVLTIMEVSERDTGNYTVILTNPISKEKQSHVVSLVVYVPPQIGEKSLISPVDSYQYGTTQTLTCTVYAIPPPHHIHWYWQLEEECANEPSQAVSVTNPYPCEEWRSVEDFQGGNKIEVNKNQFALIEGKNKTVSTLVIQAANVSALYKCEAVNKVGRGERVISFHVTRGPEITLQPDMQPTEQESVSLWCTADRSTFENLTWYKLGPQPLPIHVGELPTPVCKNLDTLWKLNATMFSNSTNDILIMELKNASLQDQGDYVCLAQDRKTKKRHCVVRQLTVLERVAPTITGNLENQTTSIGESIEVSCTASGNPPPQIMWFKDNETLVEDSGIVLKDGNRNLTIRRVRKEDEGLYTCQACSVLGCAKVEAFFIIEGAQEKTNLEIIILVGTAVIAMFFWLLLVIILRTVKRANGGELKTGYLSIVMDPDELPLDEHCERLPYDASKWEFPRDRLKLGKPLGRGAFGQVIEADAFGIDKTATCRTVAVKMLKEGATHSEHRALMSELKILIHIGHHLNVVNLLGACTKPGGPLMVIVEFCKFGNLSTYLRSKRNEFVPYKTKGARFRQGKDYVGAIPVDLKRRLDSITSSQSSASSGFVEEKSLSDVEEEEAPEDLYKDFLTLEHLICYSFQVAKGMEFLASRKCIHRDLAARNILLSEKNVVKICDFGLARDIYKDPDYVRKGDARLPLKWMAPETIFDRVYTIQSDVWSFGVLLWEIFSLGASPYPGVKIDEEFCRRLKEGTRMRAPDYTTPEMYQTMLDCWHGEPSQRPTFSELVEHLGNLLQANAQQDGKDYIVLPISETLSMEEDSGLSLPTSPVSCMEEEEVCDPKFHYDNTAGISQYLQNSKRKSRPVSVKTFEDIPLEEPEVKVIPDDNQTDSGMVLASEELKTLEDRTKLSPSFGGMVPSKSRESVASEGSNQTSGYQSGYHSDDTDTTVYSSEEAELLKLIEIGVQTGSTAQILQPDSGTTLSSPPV

Turning to `Cc1ncc(C(=O)NCCN2C3CCCC2CCC3)cc1NC(=O)c1cnn2cc(-c3cnn(C)c3)sc12` [Example 4, N-(5-((2-(9-azabicyclo[3.3.1]nonan-9-yl)ethyl)carbamoyl)-2-methylpyridin-3-yl)-2-(1-methyl-1H-pyrazol-4-yl)pyrazolo[5,1-b]thiazole-7-carboxamide], the pIC50 was less than 5.12.

`Cc1ncc(C(=O)NCCN2CC3CC(C3)C2)cc1NC(=O)c1cnn2cc(-c3cnn(C)c3)sc12` [Example 5, N-(5-((2-(3-azabicyclo[3.1.1]heptan-3-yl)ethyl)carbamoyl)-2-methylpyridin-3-yl)-2-(1-methyl-1H-pyrazol-4-yl)pyrazolo[5,1-b]thiazole-7-carboxamide] had a pIC50 of less than 5.12. In the case of `Cc1ncc(C(=O)NCCN2CCCC2(C)C)cc1NC(=O)c1cnn2cc(-c3cnn(C4CC4)c3)sc12` [Example 6, 2-(1-cyclopropyl-1H-pyrazol-4-yl)-N-(5-((2-(2,2-dimethylpyrrolidin-1-yl)ethyl)carbamoyl)-2-methylpyridin-3-yl)pyrazolo[5,1-b]thiazole-7-carboxamide], the pIC50 is less than 5.12.

Compound `Cc1ncc(C(=O)NCCN2CCCC2(C)C)cc1NC(=O)c1cnn2cc(-c3ccncc3)sc12` [Example 7, N-(5-((2-(2,2-dimethylpyrrolidin-1-yl)ethyl)carbamoyl)-2-methyl-pyridin-3-yl)-2-(pyridin-4-yl)pyrazolo[5,1-b]thiazole-7-carboxamide] gave a pIC50 of less than 5.12. With `Cc1ncc(C(=O)NCCN2CCCC2(C)C)cc1NC(=O)c1cnn2cc(-c3cnn(C)c3)sc12` [Example 8, N-(5-((2-(2,2-dimethylpyrrolidin-1-yl)ethyl)carbamoyl)-2-methylpyridin-3-yl)-2-(1-methyl-1H-pyrazol-4-yl)pyrazolo[5,1-b]thiazole-7-carboxamide] the figure was less than 5.00; with `Cc1ncc(C(=O)NCCN2CCCC2(C)C)cc1NC(=O)c1cnn2cc(-c3ccn(C)n3)sc12` [Example 9, N-(5-((2-(2,2-dimethylpyrrolidin-1-yl)ethyl)carbamoyl)-2-methylpyridin-3-yl)-2-(1-methyl-1H-pyrazol-3-yl)pyrazolo[5,1-b]thiazole-7-carboxamide], less than 5.12; with `Cc1ncc(NC(=O)CCN2CCCC2(C)C)cc1NC(=O)c1cnn2cc(-c3cnn(C)c3)sc12` [Example 10, N-(5-(3-(2,2-dimethylpyrrolidin-1-yl)propanamido)-2-methyl-pyridin-3-yl)-2-(1-methyl-1H-pyrazol-4-yl)pyrazolo[5,1-b]thiazole-7-carboxamide], less than 5.12.

Take `Cc1ncc(NC(=O)CCN2CCCC2(C)C)cc1NC(=O)c1cnn2cc(-c3ccnn3C)sc12` [Example 11, N-(5-(3-(2,2-dimethylpyrrolidin-1-yl)propanamido)-2-methyl-pyridin-3-yl)-2-(1-methyl-1H-pyrazol-5-yl)pyrazolo[5,1-b]thiazole-7-carboxamide]: the pIC50 is less than 5.12.

Consider `COCCn1cc(-c2cn3ncc(C(=O)Nc4cc(NC(=O)CCN5CCC56CCC6)cnc4C)c3s2)cn1` [Example 95, N-(5-(3-(1-azaspiro[3.3]heptan-1-yl)propanamido)-2-methylpyridin-3-yl)-2-(1-(2-methoxyethyl)-1H-pyrazol-4-yl)pyrazolo[5,1-b]thiazole-7-carboxamide], for which the pIC50 was less than 5.12.

Compound `Cc1ncc(NC(=O)CCN2CC(C)(C)C2)cc1NC(=O)c1cnn2cc(-c3cnn(C)c3)sc12` [Example 96, N-(5-(3-(3,3-dimethylazetidin-1-yl)propanamido)-2-methylpyridin-3-yl)-2-(1-methyl-1H-pyrazol-4-yl)pyrazolo[5,1-b]thiazole-7-carboxamide] showed a pIC50 of less than 5.12. `Cc1ncc(NC(=O)CCN2CCC3(CC2)CC3)cc1NC(=O)c1cnn2cc(-c3cnn(C)c3)sc12` [Example 97, N-(5-(3-(6-azaspiro[2.5]octan-6-yl)propanamido)-2-methylpyridin-3-yl)-2-(1-methyl-1H-pyrazol-4-yl)pyrazolo[5,1-b]thiazole-7-carboxamide] showed a pIC50 of less than 5.12. Under `Cc1ncc(NC(=O)CCN2CCCC23CC3)cc1NC(=O)c1cnn2cc(-c3cnn(C)c3)sc12` [Example 98] stands less than 5.12; under `COCCn1cc(-c2cn3ncc(C(=O)Nc4cc(NC(=O)CCN5CC6CCC5CC6)cnc4C)c3s2)cn1` [Example 100, N-(5-(3-(2-azabicyclo[2.2.2]octan-2-yl)propanamido)-2-methylpyridin-3-yl)-2-(1-(2-methoxyethyl)-1H-pyrazol-4-yl)pyrazolo[5,1-b]thiazole-7-carboxamide], less than 5.12; under `COCCn1nc(C)c(-c2cn3ncc(C(=O)Nc4cc(NC(=O)CCN5CC6CCC(C5)O6)cnc4C)c3s2)c1C` [Example 102, N-(5-(3-(8-oxa-3-azabicyclo[3.2.1]octan-3-yl)propanamido)-2-methylpyridin-3-yl)-2-(1-(2-methoxyethyl)-3,5-dimethyl-1H-pyrazol-4-yl)pyrazolo[5,1-b]thiazole-7-carboxamide], less than 5.12. With `COCCn1nc(C)c(-c2cn3ncc(C(=O)Nc4cc(NC(=O)CCN5CCC6(CC6)C5)cnc4C)c3s2)c1C` [Example 103, N-(5-(3-(5-azaspiro[2.4]heptan-5-yl)propanamido)-2-methylpyridin-3-yl)-2-(1-(2-methoxyethyl)-3,5-dimethyl-1H-pyrazol-4-yl)pyrazolo[5,1-b]thiazole-7-carboxamide] the figure was less than 5.12; with `Cc1ncc(NC(=O)CCN2CCC3(CC3)C2)cc1NC(=O)c1cnn2cc(-c3cnn(C)c3)sc12` [Example 104, N-(5-(3-(5-azaspiro[2.4]heptan-5-yl)propanamido)-2-methylpyridin-3-yl)-2-(1-methyl-1H-pyrazol-4-yl)pyrazolo[5,1-b]thiazole-7-carboxamide], less than 5.12. Under `Cc1ncc(NC(=O)CCCN2CCC[C@@H]2C)cc1NC(=O)c1cnn2cc(-c3cnn(C)c3)sc12` [Example 106, (S)-2-(1-methyl-1H-pyrazol-4-yl)-N-(2-methyl-5-(4-(2-methylpyrrolidin-1-yl)butanamido)pyridin-3-yl)pyrazolo[5,1-b]thiazole-7-carboxamide] stands less than 5.12; under `Cc1ncc(NC(=O)NCC2CCN(C)CC2)cc1NC(=O)c1cnn2cc(-c3cnn(C)c3)sc12` [Example 107, 2-(1-methyl-1H-pyrazol-4-yl)-N-(2-methyl-5-(3-((1-methylpiperidin-4-yl)methyl)ureido)pyridin-3-yl)pyrazolo[5,1-b]thiazole-7-carboxamide], less than 5.12; under `Cc1ncc(NC(=O)NCCC2CCN(C)CC2)cc1NC(=O)c1cnn2cc(-c3cnn(C)c3)sc12` [Example 108, 2-(1-methyl-1H-pyrazol-4-yl)-N-(2-methyl-5-(3-(2-(1-methylpiperidin-4-yl)ethyl)ureido)pyridin-3-yl)pyrazolo[5,1-b]thiazole-7-carboxamide], less than 5.60.

As for `Cc1ncc(NC(=O)NCC2CCN(C(C)C)CC2)cc1NC(=O)c1cnn2cc(-c3cnn(C)c3)sc12` [Example 109, N-(5-(3-((1-isopropylpiperidin-4-yl)methyl)ureido)-2-methylpyridin-3-yl)-2-(1-methyl-1H-pyrazol-4-yl)pyrazolo[5,1-b]thiazole-7-carboxamide], the pIC50 was less than 5.12.

In general, pIC50 refers to −log10 of the IC50, conventionally taken in molar units. Low readings indicate a high IC50, high ones a low IC50.
